Laboratory results reported in the supplement of paper PMC13380429.

How the values were obtained:
Conditions in all cases: 72 h
[1] = system: Caco-2; experiment: cell viability relative to DMSO; higher = less toxic
[2] = system: Vero E6; experiment: as above
[3] = system: Calu-3; experiment: as above
[4] = system: HepG2; experiment: as above
[5] = system: U2OS; experiment: as above
[6] = system: Caco-2; experiment: relative viability EC50 (midpoint between 100% and the lowest measured viability); higher = less toxic
[7] = system: Vero E6; experiment: as above
[8] = system: Calu-3; experiment: as above
[9] = system: HepG2; experiment: as above
[10] = system: U2OS; experiment: as above
[11] = system: Caco-2; experiment: drug sensitivity score (DSS) for viability; higher = more toxic; extreme values may be limits of the assay
[12] = system: Vero E6; experiment: as above
[13] = system: Calu-3; experiment: as above
[14] = system: HepG2; experiment: as above
[15] = system: U2OS; experiment: as above

SMILES | cell viability ([1]; 1 nM) [%] | cell viability ([1]; 10 nM) [%] | cell viability ([1]; 100 nM) [%] | cell viability ([1]; 1000 nM) [%] | cell viability ([1]; 10000 nM) [%] | cell viability ([2]; 1 nM) [%] | cell viability ([2]; 10 nM) [%] | cell viability ([2]; 100 nM) [%] | cell viability ([2]; 1000 nM) [%] | cell viability ([2]; 10000 nM) [%] | cell viability ([3]; 1 nM) [%] | cell viability ([3]; 10 nM) [%] | cell viability ([3]; 100 nM) [%] | cell viability ([3]; 1000 nM) [%] | cell viability ([3]; 10000 nM) [%] | cell viability ([4]; 1 nM) [%] | cell viability ([4]; 10 nM) [%] | cell viability ([4]; 100 nM) [%] | cell viability ([4]; 1000 nM) [%] | cell viability ([4]; 10000 nM) [%] | cell viability ([5]; 1 nM) [%] | cell viability ([5]; 10 nM) [%] | cell viability ([5]; 100 nM) [%] | cell viability ([5]; 1000 nM) [%] | cell viability ([5]; 10000 nM) [%] | relative viability EC50 [6] [µM] | relative viability EC50 [7] [µM] | relative viability EC50 [8] [µM] | relative viability EC50 [9] [µM] | relative viability EC50 [10] [µM] | drug sensitivity score [11] | drug sensitivity score [12] | drug sensitivity score [13] | drug sensitivity score [14] | drug sensitivity score [15]
N#Cc1ccc(N2CCN(C(=O)COc3ccc4[nH]cc(CCN)c4c3)CC2)cc1 [donitriptan] | 92.4 | 88.7 | 89 | 97.1 | 104 | 95.1 | 101 | 98 | 98.5 | 107 | 89 | 103 | 107 | 106 | 111 | 102 | 105 | 94.1 | 102 | 94.8 | 101 | 102 | 99.4 | 99.7 | 107 | > 10 | > 10 | > 10 | > 10 | > 10 | 0 | 0 | 0 | 0 | 0
CCN[C@H]1C[C@H](C)S(=O)(=O)c2sc(S(N)(=O)=O)cc21 [dorzolamide] | 101 | 108 | 84 | 94.7 | 100 | 98.5 | 101 | 92.6 | 98.1 | 91.1 | 100 | 100 | 95.7 | 88.3 | 98.4 | 113 | 93.7 | 104 | 94.9 | 99.4 | 95.2 | 100 | 93.6 | 101 | 97.4 | > 10 | > 10 | > 10 | > 10 | > 10 | 0 | 0 | 0 | 0 | 0
CCN(CC)C(=O)/C(C#N)=C/c1cc(O)c(O)c([N+](=O)[O-])c1 [entacapone] | 93.7 | 98.4 | 95.5 | 96 | 93.2 | 100 | 99.2 | 93.2 | 96 | 100 | 92.3 | 86.9 | 94.7 | 98.5 | 101 | 98.3 | 84.1 | 102 | 92.2 | 100 | 96.8 | 102 | 98 | 98.9 | 99.7 | > 10 | > 10 | > 10 | > 10 | > 10 | 0 | 0 | 0 | 0 | 0
O=C(O[C@@H]1Cc2c(O)cc(O)cc2O[C@@H]1c1cc(O)c(O)c(O)c1)c1cc(O)c(O)c(O)c1 [epigallocatechin-gallate-(-)] | 103 | 99.1 | 97.7 | 99.7 | 101 | 98.5 | 100 | 103 | 98.2 | 95.4 | 103 | 90.5 | 103 | 96.8 | 97.1 | 101 | 107 | 93.1 | 97.8 | 97.5 | 100 | 98.2 | 103 | 97 | 97.3 | > 10 | > 10 | > 10 | > 10 | > 10 | 0 | 0 | 0 | 0 | 0
O=c1ccc2cc(O[C@@H]3O[C@H](CO)[C@@H](O)[C@H](O)[C@H]3O)c(O)cc2o1 [esculin] | 93 | 105 | 91.7 | 102 | 99.6 | 105 | 98.8 | 102 | 95.4 | 104 | 95.4 | 101 | 91 | 96 | 107 | 104 | 97.3 | 97.4 | 101 | 96 | 100 | 99.4 | 96.8 | 103 | 98.2 | > 10 | > 10 | > 10 | > 10 | > 10 | 0 | 0 | 0 | 0 | 0
CCc1cccc2c3c([nH]c12)C(CC)(CC(=O)O)OCC3 (stereo not given) [etodolac] | 86.2 | 99.4 | 82.7 | 86.9 | 87.9 | 91.7 | 98.8 | 93.7 | 105 | 95.2 | 98 | 107 | 98.7 | 91.9 | 106 | 105 | 107 | 96.3 | 94.4 | 99.1 | 95.7 | 103 | 96.2 | 104 | 93.4 | > 10 | > 10 | > 10 | > 10 | > 10 | 0 | 0 | 0 | 0 | 0
